In patent publication US8354443B2, “Cyclopropane indolinone derivatives” (Hoffmann-La Roche Inc., priority 2009, dated 2013):

test system: recombinant AMPK proteins (α1β1γ1, α2β1γ1, α1(1-335), α1(1-394) or α2(1-394)); experiment: Scintillation Proximity Assay (AMPK activation); format: biochemical, human; settings: effective concentration of activator for 50% of maximal enzyme activity; 2 hr at 30° C.; AMPK form not specified
Text: Recombinant human AMPK α1β1γ1, α2β1γ1 or AMPK a subunit truncations α1 (1-335), α1 (1-394) and α2(1-394) were constructed, expressed and purified as described previously (Pang, T., Zhang, Z. S., Gu, M., Qiu, B. Y., Yu, L. F., Cao, P. R., Shao, W., Su, M. B., Li, J. Y., Nan, F. J., and Li, J. (2008) or purchased from Invitrogen (San Diego, Calif., U.S.A.). Rat liver AMPK heterotrimer enzyme was obtained from Upstate (Billerica, Mass., U.S.A.).
Before the Scintillation Proximity Assay (SPA) assay, 200 nM recombinant AMPK proteins (α1β1γ1, α2β1γ1, α1(1-335), α1(1-394) or α2(1-394)) were fully phosphorylated as described previously (Pang et al., 2008). SPA reactions were performed in 96-well plates at a final volume of 50 μl containing 20 mM Tris-HCl pH 7.5, 5 mM MgCl2, 1 mM DTT, 2 μM biotin-SAMS, 2 μM ATP, 0.2 μCi/well [γ-^33P]ATP, and various amount of activator. Reactions were initiated by the addition of 50 nM recombinant AMPK proteins to the reaction solutions and incubated at 30° C. for 2 hr. After that, reactions were terminated by the addition of 40 μl stop solution containing 80 μg streptavidin-coated SPA beads per well, 50 mM EDTA, 0.1% Triton X-100 in PBS, pH 7.5 and incubated for 1 hr. Finally, a 160 μl suspension solution containing 2.4 M CsCl, 50 mM EDTA, and 0.1% Triton X-100 in PBS (pH 7.5) was added to the reaction solution to suspend SPA beads completely. SPA signals were determined with a Wallac MicroBeta plate counter (PerkinElmer) 30 min later for calculation of the amount of product formed. The amount of products formed in 2 hr was plotted against activator concentrations to determine the effective concentration of the activator (EC50) required for 50% of maximal enzyme activity.

| EC50 [µM] | SMILES |
| --- | --- |
| 2.56 | O=C(c1cccc(N2C(=O)[C@@]3(C[C@H]3c3ccc(Cl)cc3)c3ccccc32)c1)N1CCOCC1 (racemic) [Example 88, (1R,2S) and (1S,2R)-2-(4-chlorophenyl)-1′-(3-(morpholine-4-carbonyl)phenyl)spiro [cyclopropane-1,3′-indolin]-2′-one] |
| 1.1 | CC1CN(CCNCCN2C(=O)[C@]3(C[C@@H]3c3ccc(Cl)cc3)c3ccccc32)CC(C)O1 (mixture of isomers) [Example 130, (1S,2R) and (1R,2S)-2-(4-chlorophenyl)-1′-(2-(2-(2,6-dimethylmorpholino)ethylamino)ethyl) Spiro[cyclopropane-1,3′-indolin]-2′-one] |
| 1.55 | CS(=O)(=O)NC(=O)c1cccc(N2C(=O)[C@@]3(C[C@@H]3c3ccc(Cl)cc3)c3ccccc32)c1 (racemic) [Example 91, (1R,2R) and (1S,2S)-3-(2-(4-chlorophenyl)-2′-oxospiro[cyclopropane-1,3′-indoline]-1′-yl)-N-(methylsulfonyl)benzamide] |
| 1.66 | O=C(O)c1cccc(CN2C(=O)[C@]3(C[C@H]3c3ccc(Cl)cc3)c3cc(F)ccc32)c1 (racemic) [Example 23, (1S,2S) and (1R,2R)-3-((2-(4-chlorophenyl)-5′-fluoro-2′-oxospiro[cyclopropane-1,3′-indoline]-1′-yl)methyl)benzoic acid] |
| 6.48 | O=C(NCCN1CCOCC1)c1cccc(CN2C(=O)[C@@]3(C[C@H]3c3ccc(Cl)cc3)c3ccccc32)c1 (racemic) [Example 114, (1R,2S) and (1S,2R)-3-((2-(4-chlorophenyl)-2′-oxospiro[cyclopropane-1,3′-indoline]-1′-yl)methyl)-N-(2-morpholinoethyl)benzamide] |
| 2.22 | O=C(O)c1cn(CCN2C(=O)[C@]3(C[C@@H]3c3ccc(Cl)cc3)c3ccccc32)cn1 (racemic) [Example 81, (1S,2R) and (1R,2S)-1-(2-(2-(4-chlorophenyl)-2′-oxospiro[cyclopropane-1,3′-indoline]-1′-yl)ethyl)-1H-imidazole-4-carboxylic acid] |
| 2.98 | O=C(O)c1cccc(N2C(=O)[C@]3(C[C@H]3c3ccc(Cl)cc3)c3ccccc32)c1 (racemic) [Example 84, (1S,2S) and (1R,2R)-3-(−2-(4-chlorophenyl)-2′-oxospiro[cyclopropane-1,3′-indoline]-1′-yl)benzoic acid] |
| 8.67 | CC(C)NC(=O)c1cccc(CN2C(=O)[C@@]3(C[C@H]3c3ccc(Cl)cc3)c3ccccc32)c1 (racemic) [Example 61, (1R,2S) and (1S,2R)-3-((2-(4-chlorophenyl)-2′-oxospiro[cyclopropane-1,3′-indoline]-1′-yl)methyl)-N-isopropylbenzamide] |
| 1.47 | CS(=O)(=O)N1CCN(C(=O)c2cccc(N3C(=O)[C@]4(C[C@@H]4c4ccc(Cl)cc4)c4ccccc43)c2)CC1 (racemic) [Example 90, (1R,2S) and (1S,2R)-2-(4-chlorophenyl)-1′-(3-(4-(methylsulfonyl)piperazine-1-carbonyl)phenyl)spiro[cyclopropane-1,3′-indolin]-2′-one] |
| 0.99 | O=C(Nc1cc(C2CC2)[nH]n1)c1cccc(CN2C(=O)[C@]3(C[C@@H]3c3ccc(Cl)cc3)c3ccccc32)c1 (racemic) [Example 117, (1S,2R) and (1R,2S)-3-((2-(4-chlorophenyl)-2′-oxospiro[cyclopropane-1,3′-indoline]-1′-yl)methyl)-N-(5-cyclopropyl-1H-pyrazol-3-yl)benzamide] |
| 1.65 | CS(=O)(=O)N1CCC(CN2C(=O)[C@]3(C[C@@H]3c3ccc(Cl)cc3)c3ccccc32)CC1 (racemic) [Example 73, (1S,2R) and (1R,2S)-2-(4-chlorophenyl)-1′-((1-(methylsulfonyl)piperidin-4-yl)methyl) Spiro[cyclopropane-1,3′-indolin]-2′-one] |
| 11.2 | O=C(O)c1cccc(CN2C(=O)[C@]3(C[C@@H]3c3ccc(Cl)cc3)c3cc(F)ccc32)c1 (racemic) [Example 22, (1S,2R) and (1R,2S)-3-((2-(4-chlorophenyl)-5′-fluoro-2′-oxospiro[cyclopropane-1,3′-indoline]-1′-yl)methyl)benzoic acid] |
| 3.27 | O=C1N(c2c[nH]cn2)c2ccccc2[C@@]12C[C@@H]2c1ccc(Cl)cc1 (racemic) [Example 131, (1S,2R) and (1R,2S)-2-(4-chlorophenyl)-1′-(1H-imidazol-4-yl)spiro[cyclopropane-1,3′-indolin]-2′-one] |
| 2.04 | O=C(O)c1cccc(CN2C(=O)[C@]3(C[C@H]3c3cccc(F)c3)c3ccccc32)c1 (racemic) [Example 11, (1S,2S) and (1R,2R)-3-((2-(3-fluorophenyl)-2′-oxospiro[cyclopropane-1,3′-indoline]-1′-yl)methyl)benzoic acid] |
| 5.3 | N#Cc1ccc([C@H]2C[C@]23C(=O)N(Cc2cccc(C(=O)O)c2)c2ccccc23)cc1 (racemic) [Example 5, (1S,2R) and (1R,2S)-3-((2-(4-cyanophenyl)-2′-oxospiro[cyclopropane-1,3′-indoline]-1′-yl)methyl)benzoic acid] |
| 5.4 | O=C1N(CC2CCNCC2)c2ccccc2[C@@]12C[C@@H]2c1ccc(Cl)cc1 (racemic) [Example 124, (1S,2R) and (1R,2S)-2-(4-chlorophenyl)-1′-(piperidin-4-ylmethyl) Spiro[cyclopropane-1,3′-indolin]-2′-one] |
| 5.91 | CN(C)CCN1CCN(CCN2C(=O)[C@]3(C[C@@H]3c3ccc(Cl)cc3)c3ccccc32)CC1 (racemic) [Example 75, (1S,2R) and (1R,2S)-2-(4-chlorophenyl)-1′-(2-(4-(2-(dimethylamino)ethyl)piperazin-1-yl)ethyl) Spiro[cyclopropane-1,3′-indolin]-2′-one] |
| 1.71 | CC(C)N1CCN(C(=O)c2cccc(CN3C(=O)[C@]4(C[C@@H]4c4ccc(Cl)cc4)c4ccccc43)c2)CC1 (racemic) [Example 65, (1S,2R) and (1R,2S)-2-(4-chlorophenyl)-1′-(3-(4-isopropylpiperazine-1-carbonyl)benzyl)spiro[cyclopropane-1,3′-indolin]-2′-one] |
| 2.02 | O=C(O)c1cccc(CN2C(=O)[C@]3(C[C@@H]3c3cccc(F)c3)c3ccccc32)c1 (racemic) [Example 10, (1S,2R) and (1R,2S)-3-((2-(3-fluorophenyl)-2′-oxospiro[cyclopropane-1,3′-indoline]-1′-yl)methyl)benzoic acid] |
| 1.37 | CNC(=O)c1cccc(CN2C(=O)[C@@]3(C[C@H]3c3ccc(Cl)cc3)c3ccccc32)c1 (racemic) [Example 110, (1R,2S) and (1S,2R)-3-((2-(4-chlorophenyl)-2′-oxospiro[cyclopropane-1,3′-indoline]-1′-yl)methyl)-N-methylbenzamide] |
| 1.25 | O=C(O)Cn1cnc(N2C(=O)[C@]3(C[C@@H]3c3ccc(Cl)cc3)c3ccccc32)c1 (racemic) [Example 80, (1S,2R) and (1R,2S)-2-(4-(2-(4-chlorophenyl)-2′-oxospiro[cyclopropane-1,3′-indoline]-1′-yl)-1 H-imidazol-1-yl)acetic acid] |
| 3.2 | CCN(CC)CCN1C(=O)[C@]2(C[C@@H]2c2ccc(Cl)cc2)c2ccccc21 (racemic) [Example 71, (1S,2R) and (1R,2S)-2-(4-chlorophenyl)-1′-(2-(diethylamino)ethyl)spiro[cyclopropane-1,3′-indolin]-2′-one] |
| 1.79 | O=C(O)c1cccc(CN2C(=O)[C@]3(C[C@H]3c3ccc(F)cc3)c3ccccc32)c1 (racemic) [Example 26, (1S,2S) and (1R,2R)-3-((-2-(4-fluorophenyl)-2′-oxospiro[cyclopropane-1,3′-indoline]-1′-yl)methyl)benzoic acid] |
| 1.4 | CN1CCN(C(=O)c2cccc(N3C(=O)[C@]4(C[C@@H]4c4ccc(Cl)cc4)c4ccccc43)c2)CC1 (racemic) [Example 89, (1S,2R) and (1R,2S)-2-(4-chlorophenyl)-1′-(3-(4-methylpiperazine-1-carbonyl)phenyl)spiro[cyclopropane-1,3′-indolin]-2′-one] |
